Reference: PubChem BioAssay (NCI)
Where “and” joins values, the source holds several entries; their conditions need not be identical. Equal values may be shown once.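 Briefly, cells in 96-well plates were exposed to five compound concentrations for 48 h, and endpoints were estimated by linear interpolation. GI50: concentration for 50% inhibition of growth. Definition used: TGI = concentration required for complete inhibition of growth.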

Key:
Assay in all cases: NCI anticancer screen, dose series, 48 h
RPMI-8226 leukemia = tested on: RPMI-8226 leukemia
BT-549 breast = tested on: BT-549 breast
IGROV1 ovarian = tested on: IGROV1 ovarian
NCI-H226 lung = tested on: NCI-H226 lung
LOX IMVI melanoma = tested on: LOX IMVI melanoma
SN12C renal = tested on: SN12C renal
HOP-62 NSCLC = tested on: HOP-62 NSCLC
NCI/ADR-RES ovarian = tested on: NCI/ADR-RES ovarian
HCC-2998 colon = tested on: HCC-2998 colon
NCI-H460 lung = tested on: NCI-H460 lung

| SMILES | TGI (RPMI-8226 leukemia) | TGI (BT-549 breast) | TGI (IGROV1 ovarian) | TGI (NCI-H226 lung) | TGI (LOX IMVI melanoma) | TGI (SN12C renal) | TGI (HOP-62 NSCLC) | TGI (NCI/ADR-RES ovarian) | TGI (HCC-2998 colon) | TGI (NCI-H460 lung) | GI50 (RPMI-8226 leukemia) | GI50 (BT-549 breast) | GI50 (IGROV1 ovarian) | GI50 (NCI-H226 lung) | GI50 (LOX IMVI melanoma) | GI50 (SN12C renal) | GI50 (HOP-62 NSCLC) | GI50 (NCI/ADR-RES ovarian) | GI50 (HCC-2998 colon) | GI50 (NCI-H460 lung) |
| --- | --- | --- | --- | --- | --- | --- | --- | --- | --- | --- | --- | --- | --- | --- | --- | --- | --- | --- | --- | --- |
| CC(=O)C(C(C)=O)[C@@H]1OC(C)(C)O[C@@H]1[C@H]1COC(C)(C)O1 | > 100 µM | > 100 µM | > 100 µM | > 100 µM | > 100 µM | 44.9 µM | > 100 µM | > 100 µM | > 100 µM | > 100 µM | – | – | – | – | – | – | – | – | – | – |
| Cc1ccc(N=Nc2c(O)ccc3cc(S(=O)(=O)O)ccc23)cc1 | > 100 µM | > 100 µM | > 100 µM | > 100 µM | > 100 µM and 38.2 µM | > 100 µM | > 100 µM | > 100 µM | > 100 µM | > 100 µM | – | – | – | – | – | – | – | – | – | – |
| Cn1c2ccccc2c2cc(N3CCCC3)c3c(c21)C(=O)N(c1ccccc1)C3=O | > 100 µM | > 100 µM | > 100 µM | > 100 µM | > 100 µM | > 100 µM | > 100 µM | > 100 µM | > 100 µM | > 100 µM | – | – | – | – | – | – | – | – | – | – |
| S=c1nc(N/N=C/c2cccs2)c2cn[nH]c2[nH]1 | 62.6 µM | > 100 µM | 75.1 µM | > 100 µM | 74.6 µM | > 100 µM | 69 µM | 81.7 µM | 27.8 µM | 13.1 µM | – | – | – | – | – | – | – | – | – | – |
| Cc1nc2ccc(F)cc2c(Cl)c1CCCl | > 100 µM | > 100 µM | > 100 µM | > 100 µM | 82.8 µM | – | > 100 µM | > 100 µM | 84.9 µM | > 100 µM | – | – | – | – | – | – | – | – | – | – |
| CN(C)CCNC(=O)c1cccc2nc3c(C(=O)NCCN(C)C)cccc3nc12 | > 23.6 µM | 15.9 µM | > 23.3 µM | 5.66 µM | 1.49 µM | 5.58 µM | 5.12 µM | > 58.1 µM | 4.12 µM | 7.91 µM | – | – | – | – | – | – | – | – | – | – |
| O=C(O)c1c2c(cc3c1CC1(Cc4cc5c(cc4C1=O)CCC5)C3)CCC2 (centres undefined) | > 100 µM | > 100 µM | > 100 µM | > 100 µM | > 100 µM | > 100 µM | > 100 µM | > 100 µM | > 100 µM | > 100 µM | – | – | – | – | – | – | – | – | – | – |
| COC(=O)c1ccccc1/C=C1\Cc2ccc3c(c2C1=O)CCCC3 | > 100 µM | > 100 µM | > 100 µM | > 100 µM | > 100 µM | > 100 µM | > 100 µM | > 100 µM | > 100 µM | > 100 µM | – | – | – | – | – | – | – | – | – | – |
| Cc1cc(S(=O)(=O)Nc2nncn2-c2ccc(Cl)cc2)c(S)cc1Cl | > 10 µM | > 10 µM | > 10 µM | > 10 µM | > 10 µM | > 10 µM | > 10 µM | > 10 µM | > 10 µM | > 10 µM | – | – | – | – | – | – | – | – | – | – |
| O=[N+]([O-])c1cc2ccc(N(CCO)CCO)nc2nc1N(CCO)CCO | > 100 µM | > 100 µM | > 100 µM | > 100 µM | > 100 µM | > 100 µM | > 100 µM | > 100 µM | > 100 µM | > 100 µM | – | – | – | – | – | – | – | – | – | – |
| C=CC(=O)N1C/C(=C\c2ccc([N+](=O)[O-])cc2)C(=O)/C(=C/c2ccc([N+](=O)[O-])cc2)C1 | > 100 µM | 0.567 µM | 0.419 µM | 1.05 µM | 0.18 µM | 0.772 µM | 0.375 µM | 4.12 µM | 1.21 µM | 1.21 µM | – | – | – | – | – | – | – | – | – | – |
| Cc1cc(OCCOCCC(F)(F)P(=O)(O)O)ccc1CCc1cnc2c(N)nc3cc(CCC(=O)O)ccc3c2c1 | > 100 µM | > 100 µM | > 100 µM | > 100 µM | > 100 µM | > 100 µM | > 100 µM | > 100 µM | > 100 µM | > 100 µM | > 100 µM | > 100 µM | > 100 µM | > 100 µM | > 100 µM | > 100 µM | > 100 µM | > 100 µM | > 100 µM | > 100 µM |
| CCOC(=O)/C=C(\C(=O)OCC)n1cc(Cl)c(=O)n(CC(=O)OCC)c1=O | 4.58 µM | 35.5 µM | 25.9 µM | 31.7 µM | 11.2 µM | 28.8 µM | 33.7 µM | > 93.8 µM | 37.5 µM | 51.1 µM | – | – | – | – | – | – | – | – | – | – |
| COC1=C(C)C(=O)C2=C(C1=O)C1C3CC4=C(C(=O)C(OC)=C(C)C4=O)C(CNC(=O)C(C)O)N3C(C#N)C(C2)N1C (centres undefined) | < 0.215 µM | < 0.01 µM | 1.07 µM | 0.109 µM | 0.0263 µM | 1.72 µM | < 0.0282 µM | 8.72 µM | < 0.0272 µM | 0.179 µM | – | – | – | – | – | – | – | – | – | – |
| N/C(=N\Nc1ccc(Cl)cc1)c1cnccn1 | > 100 µM | > 100 µM | > 100 µM | > 100 µM | > 100 µM | > 100 µM | > 100 µM | > 100 µM | 79.1 µM | > 100 µM | – | – | – | – | – | – | – | – | – | – |
| COc1ccc(NC(C(N)=O)c2cc3cc(Br)ccc3nc2Cl)cc1 (centres undefined) | > 100 µM | > 100 µM | > 100 µM | > 100 µM | > 100 µM | > 100 µM | > 100 µM | > 100 µM | > 100 µM | > 100 µM | – | – | – | – | – | – | – | – | – | – |
| O=c1[nH]c2nccn2c2c1SCCN2 | > 100 µM | > 100 µM | > 100 µM | > 100 µM | > 100 µM | > 100 µM | > 100 µM | > 100 µM | > 100 µM | > 100 µM | – | – | – | – | – | – | – | – | – | – |
